From US20220050094A1, “Application of the apparent volume of distribution in extraction technologies and pharmacokinetics” (priority 2020, published 2022)

Assay: clinical
Details: human, in vivo
Excerpt: We claim that these volumes represent the physiological volumes of extracellular fluid compartments that receive the drug with different kinetic rates. Total exclusion of the drug from intracellular fluids is most plausible considering the highly polar and hydrophilic nature of sisomicin. Alternatively, the peripheral compartment could be considered to be interstitial fluid as a different phase of slightly higher drug affinity, where steric hindrance and binding to the negatively charged components of the extracellular matrix retards drug movement. […] The explicit solutions to the two-compartment model as a function of real time provide estimates of drug concentration upon repeated dosing (U.S. patent application Ser. No. 16/992,658). These drug concentrations at momentary distribution equilibrium (teq) can be used to determine the drug's apparent volume of distribution.
Eq. 21, can be used to assess a substance apparent volume of distribution associated with the phase of the central compartment, but only if the central compartment is a single phase. Using eq. 21, Vd,1 was calculated to be equal to 11.78 L. The equilibrium time of intercompartmental drug distribution teq is calculated from eq.
Eur J Clin Pharmacol. 1976; 10: 251-256. […]

CN[C@@H]1[C@@H](O)[C@@H](O[C@@H]2[C@@H](O)[C@H](O[C@H]3OC(CN)=CC[C@H]3N)[C@@H](N)C[C@H]2N)OC[C@]1(C)O [sisomicin]
Vd: 11.8 L
